Several values for one entry are separate records, joined by “and”; a condition that tells them apart may be missing. Identical values can stand only once.
These molecules were tested against wild-type Epidermal Growth Factor Receptor (EGFR) (Homo sapiens (Human), UniProt P00533) (assay: WT-EGFR Kinase Assay (TR-FRET, 2 mM ATP)). Conditions: EGFR Wildtyp 2 mM ATP IC50 [mol/l] (median), median or individual measurements.
Assay type: biochemical
Excerpt: Inhibitory activity of compounds of the present invention against wild-type Epidermal Growth Factor Receptor (EGFR) was quantified employing the TR-FRET based EGFR assay as described in the following paragraphs.
Recombinant fusion protein of N-terminal Glutathion-S-Transferase (GST) and a fragment of human EGFR (amino acids R669 to A1210), expressed in Sf9 insect cells and purified via affinity chromatography using Glutathion Sepharose as described above, was used as kinase. As substrate for the kinase reaction the biotinylated peptide biotin-Ahx-[…] (C-terminus in amide form) was used which can be purchased e.g. form the company Biosynthan GmbH (Berlin-Buch, Germany).
For the assay 50 nl of a 100 fold concentrated solution of the test compound in DMSO was pipetted into either a black low volume 384 well microtiter plate or a black 1536 well microtiter plate (both Greiner Bio-One, Frickenhausen, Germany), 2 μL of a solution of EGFR in aqueous assay buffer [50 mM Hepes pH 7.0, 10 mM MgCl2, 1 mM dithiothreitol, 0.5 mM EGTA, 0.3 mM activated sodium ortho-vanadate, 0.005% (w/v) bovine serum albumin, 0.005% (v/v) Tween-20] were added and the mixture was incubated for 15 min at 22° C. to allow pre-binding of the test compounds to the enzyme before the start of the kinase reaction. […] The concentration of EGFR was adjusted depending of the activity of the enzyme lot and was chosen appropriate to have the assay in the linear range, typical concentration was […]. The reaction was stopped by the addition of 3 μL of a solution of HTRF detection reagents (83.3 nM streptavidine-XL665 [Cisbio Bioassays, Codolet, France] and 1.67 nM PT66-Tb-Cryptate, a terbium-cryptate labelled anti-phospho-tyrosine antibody from Cisbio Bioassays [instead of the PT66-Tb-cryptate PT66-Eu-Chelate from Perkin Elmer can also be used]) in an aqueous EDTA-solution (133.3 mM EDTA, 0.2% (w/v) bovine serum albumin in 50 mM HEPES pH 7.5).
The resulting mixture was incubated 1 h at 22° C. to allow the binding of the biotinylated phosphorylated peptide to the streptavidine-XL665 and the PT66-Tb-Cryptate. Subsequently the amount of phosphorylated substrate was evaluated by measurement of the resonance energy transfer from the PT66-Tb-Cryptate to the streptavidine-XL665. Therefore, the fluorescence emissions at 620 nm and 665 nm after excitation at 337 nm were measured in a HTRF reader, e.g. a Pherastar (BMG Labtechnologies, Offenburg, Germany) or a Viewlux (Perkin-Elmer). The ratio of the emissions at 665 nm and at 622 nm was taken as the measure for the amount of phosphorylated substrate.

Sequence of wild-type Epidermal Growth Factor Receptor (EGFR) (P00533 669-1210): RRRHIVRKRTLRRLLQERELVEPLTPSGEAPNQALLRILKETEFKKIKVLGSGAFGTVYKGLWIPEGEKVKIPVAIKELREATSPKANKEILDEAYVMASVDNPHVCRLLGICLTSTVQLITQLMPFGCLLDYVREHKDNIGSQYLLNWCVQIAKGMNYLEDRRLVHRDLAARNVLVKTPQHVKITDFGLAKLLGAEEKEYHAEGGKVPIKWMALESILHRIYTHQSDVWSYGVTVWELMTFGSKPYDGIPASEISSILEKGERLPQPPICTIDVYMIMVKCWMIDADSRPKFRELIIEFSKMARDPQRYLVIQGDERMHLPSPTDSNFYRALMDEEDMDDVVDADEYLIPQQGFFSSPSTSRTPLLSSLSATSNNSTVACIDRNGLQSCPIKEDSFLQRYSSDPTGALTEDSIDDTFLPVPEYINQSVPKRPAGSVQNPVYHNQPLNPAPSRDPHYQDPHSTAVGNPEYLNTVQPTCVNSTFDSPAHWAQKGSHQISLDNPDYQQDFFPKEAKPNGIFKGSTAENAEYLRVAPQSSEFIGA

| SMILES | IC50 |
| --- | --- |
| CC(C(=O)Nc1cc(-c2[nH]c3c(CC4CC4)cn(C)c(=O)c3c2-c2ccc(F)cc2)ccn1)c1ccc(F)cc1 (racemic) [Example 063, N-{4-[7-(cyclopropylmethyl)-3-(4-fluorophenyl)-5-methyl-4-oxo-4,5-dihydro-1H-pyrrolo[3,2-c]pyridin-2-yl]pyridin-2-yl}-2-(4-fluorophenyl)propanamide] | > 20 µM |
| Cn1ccc2[nH]c(-c3ccnc(NC(=O)C(CC(F)F)c4ccc(F)cc4)c3)c(-c3ccccc3)c2c1=O (single isomer, unassigned) [Example 007, 4,4-difluoro-2-(4-fluorophenyl)-N-[4-(5-methyl-4-oxo-3-phenyl-4,5-dihydro-1H-pyrrolo[3,2-c]pyridin-2-yl)pyridin-2-yl]butanamide] | 11.8 µM and 13.4 µM |
| Cn1ccc2[nH]c(-c3ccnc(NC(=O)C(CC(F)F)c4ccc(F)cc4)c3)c(-c3ccccc3)c2c1=O (single isomer, unassigned) [Example 008, 4,4-difluoro-2-(4-fluorophenyl)-N-[4-(5-methyl-4-oxo-3-phenyl-4,5-dihydro-1H-pyrrolo[3,2-c]pyridin-2-yl)pyridin-2-yl]butanamide] | 7.82 µM and 7.83 µM and > 20 µM (2×) |
| CN1CCc2[nH]c(-c3ccnc(NC(=O)C(CC(F)F)c4ccc(F)cc4)c3)c(-c3cccnc3)c2C1=O (single isomer, unassigned) [Example 010, 4,4-difluoro-2-(4-fluorophenyl)-N-{4-[5-methyl-4-oxo-3-(pyridin-3-yl)-4,5,6,7-tetrahydro-1H-pyrrolo[3,2-c]pyridin-2-yl]pyridin-2-yl}butanamide] | > 20 µM |
| Cn1cc(CC(F)(F)F)c2[nH]c(-c3ccnc(NC(=O)C(CC(F)F)c4ccc(F)cc4)c3)c(-c3ccc(F)cc3)c2c1=O (single isomer, unassigned) [Example 027, 4,4-difluoro-2-(4-fluorophenyl)-N-{4-[3-(4-fluorophenyl)-5-methyl-4-oxo-7-(2,2,2-trifluoroethyl)-4,5-dihydro-1H-pyrrolo[3,2-c]pyridin-2-yl]pyridin-2-yl}butanamide] | > 20 µM |
| Cn1cc(CC(F)(F)F)c2[nH]c(-c3ccnc(NC(=O)C(CC(F)F)c4ccc(F)cc4)c3)c(-c3ccc(F)cc3)c2c1=O (single isomer, unassigned) [Example 028, 4,4-difluoro-2-(4-fluorophenyl)-N-{4-[3-(4-fluorophenyl)-5-methyl-4-oxo-7-(2,2,2-trifluoroethyl)-4,5-dihydro-1H-pyrrolo[3,2-c]pyridin-2-yl]pyridin-2-yl}butanamide] | > 5.71 µM |
| CC1(C)CNC(=O)c2c1[nH]c(-c1ccnc(NC(=O)C(CC(F)F)c3ccc(F)cc3)c1)c2-c1ccccc1 (single isomer, unassigned) [Example 044, N-[4-(7,7-dimethyl-4-oxo-3-phenyl-4,5,6,7-tetrahydro-1H-pyrrolo[3,2-c]pyridin-2-yl)pyridin-2-yl]-4,4-difluoro-2-(4-fluorophenyl)butanamide] | > 20 µM |
| CC(C(=O)Nc1cc(-c2[nH]c3c(c2-c2ccccc2)C(=O)NCC3(C)C)ccn1)c1ccc(F)cc1 (single isomer, unassigned) [Example 047, N-[4-(7,7-dimethyl-4-oxo-3-phenyl-4,5,6,7-tetrahydro-1H-pyrrolo[3,2-c]pyridin-2-yl)pyridin-2-yl]-2-(4-fluorophenyl)propanamide] | > 20 µM |
| CC(C(=O)Nc1cc(-c2[nH]c3c(CC(F)(F)F)cn(C)c(=O)c3c2-c2ccccc2)ccn1)c1ccc(F)cc1 (single isomer, unassigned; (+)) [Example 015, (+)-2-(4-fluorophenyl)-N-{4-[5-methyl-4-oxo-3-phenyl-7-(2,2,2-trifluoroethyl)-4,5-dihydro-1H-pyrrolo[3,2-c]pyridin-2-yl]pyridin-2-yl}propanamide] | 1.91 µM |
| CN1C(=O)c2c([nH]c(-c3ccnc(NC(=O)C(CC(F)F)c4ccc(F)cc4)c3)c2-c2ccccc2)CC12CCC2 (single isomer, unassigned; (+)) [Example 051, (+)-4,4-difluoro-2-(4-fluorophenyl)-N-[4-(5′-methyl-4′-oxo-3′-phenyl-1′,4′,5′,7′-tetrahydrospiro-[cyclobutane-1,6′-pyrrolo[3,2-c]pyridin]-2′-yl)pyridin-2-yl]butanamide] | 3.2 µM |
| CC(C(=O)Nc1cc(-c2[nH]c3c(CC(F)(F)F)cn(C)c(=O)c3c2-c2ccccc2)ccn1)c1ccc(F)cc1 (single isomer, unassigned; (-)) [Example 016, (-)-2-(4-fluorophenyl)-N-{4-[5-methyl-4-oxo-3-phenyl-7-(2,2,2-trifluoroethyl)-4,5-dihydro-1H-pyrrolo[3,2-c]pyridin-2-yl]pyridin-2-yl}propanamide] | > 20 µM |

Same assay, conditions: read-out: EGFR Wildtyp 2 mM ATP IC50 [mol/l] (median), median or individual measurements

| SMILES | IC50 |
| --- | --- |
| CN1CCc2[nH]c(-c3ccnc(NC(=O)C(CC(F)F)c4ccc(F)cc4)c3)c(-c3cccnc3)c2C1=O (single isomer, unassigned) [Example 011, 4,4-difluoro-2-(4-fluorophenyl)-N-{4-[5-methyl-4-oxo-3-(pyridin-3-yl)-4,5,6,7-tetrahydro-1H-pyrrolo[3,2-c]pyridin-2-yl]pyridin-2-yl}butanamide] | > 20 µM |
| CC1(C)CNC(=O)c2c1[nH]c(-c1ccnc(NC(=O)C(CC(F)F)c3ccc(F)cc3)c1)c2-c1ccccc1 (single isomer, unassigned) [Example 045, N-[4-(7,7-dimethyl-4-oxo-3-phenyl-4,5,6,7-tetrahydro-1H-pyrrolo[3,2-c]pyridin-2-yl)pyridin-2-yl]-4,4-difluoro-2-(4-fluorophenyl)butanamide] | > 20 µM |
| CC(C(=O)Nc1cc(-c2[nH]c3c(c2-c2ccccc2)C(=O)NCC3(C)C)ccn1)c1ccc(F)cc1 (single isomer, unassigned) [Example 048, N-[4-(7,7-dimethyl-4-oxo-3-phenyl-4,5,6,7-tetrahydro-1H-pyrrolo[3,2-c]pyridin-2-yl)pyridin-2-yl]-2-(4-fluorophenyl)propanamide] | > 20 µM |
| Cn1cc(CC(F)(F)F)c2[nH]c(-c3ccnc(NC(=O)C(CC(F)F)c4ccc(F)cc4)c3)c(-c3ccccc3)c2c1=O (single isomer, unassigned; (+)) [Example 020, (+)-4,4-difluoro-2-(4-fluorophenyl)-N-{4-[5-methyl-4-oxo-3-phenyl-7-(2,2,2-trifluoroethyl)-4,5-dihydro-1H-pyrrolo[3,2-c]pyridin-2-yl]pyridin-2-yl}butanamide] | > 20 µM |
| CC(C(=O)Nc1cc(-c2[nH]c3c(CC(F)(F)F)cn(C)c(=O)c3c2-c2ccc(F)cc2)ccn1)c1ccc(F)cc1 (single isomer, unassigned; (+)) [Example 024, (+)-2-(4-fluorophenyl)-N-{4-[3-(4-fluorophenyl)-5-methyl-4-oxo-7-(2,2,2-trifluoroethyl)-4,5-dihydro-1H-pyrrolo[3,2-c]pyridin-2-yl]pyridin-2-yl}propanamide] | > 20 µM |
| Cc1cn(C)c(=O)c2c(-c3ccc(F)cc3)c(-c3ccnc(NC(=O)C(C)c4ccc(F)cc4)c3)[nH]c12 (single isomer, unassigned; (+)) [Example 032, (+)-2-(4-fluorophenyl)-N-{4-[3-(4-fluorophenyl)-5,7-dimethyl-4-oxo-4,5-dihydro-1H-pyrrolo[3,2-c]pyridin-2-yl]pyridin-2-yl}propanamide] | > 20 µM |
| Cc1cn(C)c(=O)c2c(-c3ccc(F)cc3)c(-c3ccnc(NC(=O)C(CC(F)F)c4ccc(F)cc4)c3)[nH]c12 (single isomer, unassigned; (+)) [Example 036, (+)-4,4-difluoro-2-(4-fluorophenyl)-N-{4-[3-(4-fluorophenyl)-5,7-dimethyl-4-oxo-4,5-dihydro-1H-pyrrolo[3,2-c]pyridin-2-yl]pyridin-2-yl}butanamide] | > 20 µM |
| CC(C(=O)Nc1cc(-c2[nH]c3c(c2-c2ccccc2)C(=O)N(C)C2(CCC2)C3)ccn1)c1ccc(F)cc1 (single isomer, unassigned; (+)) [Example 054, (+)-2-(4-fluorophenyl)-N-[4-(5′-methyl-4′-oxo-3′-phenyl-1′,4′,5′,7′-tetrahydrospiro[cyclobutane-1,6′-pyrrolo[3,2-c]pyridin]-2′-yl)pyridin-2-yl]propanamide] | > 20 µM |

From patent US20230322767A1, “ARYL SUBSTITUTED PYRROLO-PYRIDINONES AND THERAPEUTIC USES THEREOF” (Bayer Aktiengesellschaft, priority 2020, published 2023)
